Reference: the NIST ThermoML archive (doi:10.1021/je050367p)

How the values were obtained:
[1] = xn = mol fraction of the nth substance listed; conditions: 100.8 kPa, Liquid; for viscosity: Capillary tube (Ostwald / Ubbelohde) method
[2] = refractive index (Na D-line) (dimensionless); xn = mol fraction of the nth substance listed; conditions: 100.8 kPa, Liquid, Standard Abbe refractometry

CC(C)CC(C)(C)C [2,2,4-trimethylpentane] + CCO
Conditions	mass density, 288.15 K [kg/m3]	mass density, 298.15 K [kg/m3]	mass density, 308.15 K [kg/m3]	refractive index, 288.15 K	refractive index, 298.15 K	refractive index, 308.15 K	viscosity, 288.15 K [mPa·s]	viscosity, 298.15 K [mPa·s]	viscosity, 308.15 K [mPa·s]
[1], x2 = 0	695.95	687.74	679.41	–	–	–	0.537	0.48	0.432
[1], x2 = 0.0502	697.2	688.84	680.36	–	–	–	0.532	0.473	0.424
[1], x2 = 0.1	698.76	690.33	681.76	–	–	–	0.535	0.476	0.426
[1], x2 = 0.15	700.55	692.11	683.52	–	–	–	0.542	0.48	0.429
[1], x2 = 0.2	702.53	694.07	685.43	–	–	–	0.551	0.487	0.434
[1], x2 = 0.25	704.71	696.21	687.56	–	–	–	0.564	0.497	0.441
[1], x2 = 0.3	707.1	698.57	689.88	–	–	–	0.58	0.51	0.451
[1], x2 = 0.35	709.71	701.17	692.45	–	–	–	0.601	0.526	0.462
[1], x2 = 0.4	712.6	704.03	695.3	–	–	–	0.625	0.543	0.476
[1], x2 = 0.45	715.8	707.2	698.44	–	–	–	0.652	0.565	0.492
[1], x2 = 0.5	719.31	710.68	701.91	–	–	–	0.682	0.588	0.51
[1], x2 = 0.55	723.22	714.59	705.8	–	–	–	0.718	0.615	0.531
[1], x2 = 0.6	727.55	718.9	710.11	–	–	–	0.755	0.645	0.554
[1], x2 = 0.65	732.37	723.73	714.93	–	–	–	0.797	0.677	0.58
[1], x2 = 0.7	737.81	729.14	720.34	–	–	–	0.843	0.715	0.609
[1], x2 = 0.75	743.99	735.34	726.54	–	–	–	0.894	0.755	0.642
[1], x2 = 0.8	751.11	742.37	733.58	–	–	–	0.952	0.801	0.678
[1], x2 = 0.85	759.27	750.54	741.75	–	–	–	1.018	0.854	0.72
[1], x2 = 0.9	768.81	760.17	751.44	–	–	–	1.095	0.915	0.769
[1], x2 = 0.95	780.26	771.59	762.84	–	–	–	1.19	0.991	0.828
[2], x2 = 0	–	–	–	1.39404	1.389	1.38395	–	–	–
[2], x2 = 0.0502	–	–	–	1.39319	1.3881	1.38297	–	–	–
[2], x2 = 0.1	–	–	–	1.39241	1.3873	1.38217	–	–	–
[2], x2 = 0.15	–	–	–	1.39162	1.38651	1.38138	–	–	–
[2], x2 = 0.2	–	–	–	1.39081	1.38569	1.38056	–	–	–
[2], x2 = 0.25	–	–	–	1.38996	1.38485	1.37972	–	–	–
[2], x2 = 0.3	–	–	–	1.38907	1.38397	1.37885	–	–	–
[2], x2 = 0.35	–	–	–	1.38811	1.38304	1.37794	–	–	–
[2], x2 = 0.4	–	–	–	1.38709	1.38204	1.37696	–	–	–
[2], x2 = 0.45	–	–	–	1.38597	1.38099	1.37593	–	–	–
[2], x2 = 0.5	–	–	–	1.38479	1.37984	1.3748	–	–	–
[2], x2 = 0.55	–	–	–	1.3835	1.37858	1.37358	–	–	–
[2], x2 = 0.6	–	–	–	1.38209	1.37722	1.37227	–	–	–
[2], x2 = 0.65	–	–	–	1.38055	1.37573	1.37083	–	–	–
[2], x2 = 0.7	–	–	–	1.37884	1.37408	1.36922	–	–	–
[2], x2 = 0.75	–	–	–	1.37694	1.37225	1.36745	–	–	–
[2], x2 = 0.8	–	–	–	1.37484	1.3702	1.3655	–	–	–
[2], x2 = 0.85	–	–	–	1.37249	1.36792	1.3633	–	–	–
[2], x2 = 0.9	–	–	–	1.36984	1.36536	1.36085	–	–	–
[2], x2 = 0.95	–	–	–	1.36684	1.36248	1.35812	–	–	–

CC(C)OC(C)C [diisopropyl ether] + CC(C)CC(C)(C)C
Conditions	mass density, 288.15 K [kg/m3]	mass density, 298.15 K [kg/m3]	mass density, 308.15 K [kg/m3]	refractive index, 288.15 K	refractive index, 298.15 K	refractive index, 308.15 K	viscosity, 288.15 K [mPa·s]	viscosity, 298.15 K [mPa·s]	viscosity, 308.15 K [mPa·s]
[1], x1 = 0.05	697.2	688.86	680.44	–	–	–	0.523	0.468	0.422
[1], x1 = 0.1	698.46	690.03	681.52	–	–	–	0.511	0.456	0.412
[1], x1 = 0.15	699.73	691.23	682.62	–	–	–	0.498	0.445	0.402
[1], x1 = 0.2	701.06	692.45	683.75	–	–	–	0.486	0.435	0.393
[1], x1 = 0.25	702.44	693.75	684.95	–	–	–	0.474	0.425	0.384
[1], x1 = 0.3	703.86	695.08	686.17	–	–	–	0.463	0.415	0.375
[1], x1 = 0.35	705.33	696.43	687.42	–	–	–	0.452	0.406	0.367
[1], x1 = 0.4	706.84	697.84	688.72	–	–	–	0.442	0.397	0.359
[1], x1 = 0.45	708.37	699.26	690.03	–	–	–	0.432	0.388	0.351
[1], x1 = 0.5	709.97	700.76	691.42	–	–	–	0.423	0.38	0.343
[1], x1 = 0.55	711.64	702.32	692.86	–	–	–	0.414	0.372	0.336
[1], x1 = 0.6	713.36	703.94	694.35	–	–	–	0.405	0.364	0.329
[1], x1 = 0.65	715.15	705.61	695.92	–	–	–	0.397	0.357	0.323
[1], x1 = 0.7	716.97	707.32	697.5	–	–	–	0.389	0.35	0.316
[1], x1 = 0.75	718.85	709.08	699.14	–	–	–	0.382	0.343	0.31
[1], x1 = 0.8	720.8	710.9	700.83	–	–	–	0.375	0.337	0.305
[1], x1 = 0.85	722.8	712.78	702.59	–	–	–	0.368	0.33	0.299
[1], x1 = 0.9	724.9	714.75	704.42	–	–	–	0.361	0.325	0.294
[1], x1 = 0.9499	727	716.73	706.28	–	–	–	0.354	0.319	0.288
[1], x1 = 1	729.09	718.7	708.12	–	–	–	0.348	0.313	0.283
[2], x1 = 0.05	–	–	–	1.39293	1.38786	1.38277	–	–	–
[2], x1 = 0.1	–	–	–	1.39183	1.38672	1.38159	–	–	–
[2], x1 = 0.15	–	–	–	1.39072	1.38557	1.38042	–	–	–
[2], x1 = 0.2	–	–	–	1.3896	1.38443	1.37924	–	–	–
[2], x1 = 0.25	–	–	–	1.38846	1.38326	1.37803	–	–	–
[2], x1 = 0.3	–	–	–	1.38733	1.38209	1.37682	–	–	–
[2], x1 = 0.35	–	–	–	1.38619	1.38092	1.37561	–	–	–
[2], x1 = 0.4	–	–	–	1.38504	1.37974	1.3744	–	–	–
[2], x1 = 0.45	–	–	–	1.3839	1.37856	1.37317	–	–	–
[2], x1 = 0.5	–	–	–	1.38274	1.37737	1.37195	–	–	–
[2], x1 = 0.55	–	–	–	1.38158	1.37618	1.37072	–	–	–
[2], x1 = 0.6	–	–	–	1.38042	1.37499	1.36949	–	–	–
[2], x1 = 0.65	–	–	–	1.37926	1.3738	1.36826	–	–	–
[2], x1 = 0.7	–	–	–	1.37809	1.37259	1.36703	–	–	–
[2], x1 = 0.75	–	–	–	1.37691	1.37138	1.36578	–	–	–
[2], x1 = 0.8	–	–	–	1.37573	1.37016	1.36452	–	–	–
[2], x1 = 0.85	–	–	–	1.37456	1.36896	1.36327	–	–	–
[2], x1 = 0.9	–	–	–	1.37337	1.36774	1.36201	–	–	–
[2], x1 = 0.9499	–	–	–	1.37217	1.3665	1.36073	–	–	–
[2], x1 = 1	–	–	–	1.37093	1.36524	1.35944	–	–	–
